Activity calls are given as the source filed them.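 How the source made its calls: active means compounds lowering polarization with half-effect concentration at most ten times their top valid dose; inconclusive means flat fit with 30 to 70 percent drop, or poor fit; inactive means the rest.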
What follows are compounds tested against KSHV LANA C-terminal domain (residues 932-1162), DNA binding (assay: KSHV LANA C-terminal domain DNA-binding blockers – biochemical, fluorescence polarization, MBP fusion, dry powder, dose response (AID 588363)). Conditions: MBP-C-LANA/LBS DNA binding.

SMILES | AC50
CC(=O)c1ccc2c(c1)C1C=CCC1C(C(=O)O)N2 (configuration not stated) | 4.46 µM
O=c1c(O)cccc2cc(O)c(O)c(O)c12 | 5.21 µM
CSc1ccc(/C=N/Nc2cccc(C(=O)O)c2)cc1 | 6.54 µM
COC(=O)c1ccccc1NC(=O)CCS(=O)(=O)c1ccc(Br)cc1 | 16.1 µM
O=C1/C(=C/c2ccco2)Oc2c1ccc(O)c2CN1CCCCC1 | 8.54 µM
O=C(O)CCNc1ccc(NCCC(=O)O)c2c1C(=O)c1ccccc1C2=O | 24.4 µM
O=C(O)C1Nc2c(O)cc(Cl)c([N+](=O)[O-])c2C2C=CCC12 (configuration not stated) | 13.2 µM
CC1=NN(c2cccc(C(=O)O)c2)C(=O)/C1=C\C=C\c1ccco1 | 31.2 µM
CCC(=O)Oc1ccc2c(c1)O/C(=C\c1ccco1)C2=O | 16.8 µM
O=C(O)C1Nc2ccc(Br)cc2C2C=CCC12 (configuration not stated) | 3.33 µM
O=C1CCCC(O)=C1N=Nc1ccc(C(=O)O)cc1 | 20.6 µM
Nc1c(C(=O)Nc2ccccc2F)sc2nc(Cc3ccccc3)cc(C(F)(F)F)c12 | 23.1 µM
O=C(O)c1cc(N2N=C(C(F)(F)F)/C(=C/C=C/c3ccco3)C2=O)ccc1Cl | 6.05 µM

Same assay, conditions: MBP-C-LANA/LBS DNA binding, at 35 µM (top of the series)

SMILES | activity change, negative = inhibition
Nc1c(/C=C2\C=CC(=O)C(O)=C2)c(=O)nc2sc(CC(=O)N3CCCCC3)nn12 | inactive
CC1(C)[C@@H](O[C@H]2O[C@H](C(=O)O)[C@@H](O)[C@H](O)[C@H]2O[C@@H]2O[C@H](C(=O)O)[C@@H](O)[C@H](O)[C@H]2O)CC[C@]2(C)[C@H]3C(=O)C=C4[C@@H]5C[C@@](C)(C(=O)O)CC[C@]5(C)CC[C@@]4(C)[C@]3(C)CC[C@@H]12 | inactive
CN(C)S(=O)(=O)c1cc(C(=O)NC2CCSc3ccccc32)ccc1Cl (configuration not stated) | inactive
Clc1ccc(-c2nnc3sc(-c4ccc(Br)o4)nn23)cc1 | inactive
